Publication PMC7340446, “Optimization of PTH/PTHrP Hybrid Peptides to Derive a Long‐Acting PTH Analog (LA‐PTH)” (JBMR Plus, 2020)
Where no end group is shown, it is not given here.

What was measured:
TPTX rats = conditions: orally available agonist; cited from earlier work
Text: The low solubility observed for M‐PTH/PTHrP and related analogs containing the C‐terminal PTHrP(15–36) sequence when prepared at high concentrations in aqueous neutral buffer led us to explore amino acid substitutions that would improve solubility yet preserve activity on the PTHR1. […] The resulting analog, [Ala^1,3,12,18,22,Gln^10,Arg^11,Trp^14,Lys^26]‐PTH(1‐14)/PTHrP(15–36), ...

[1] = Peptide solubility in aqueous buffers of neutral pH; assay type: physicochemical; conditions: lyophilized peptide reconstituted at 1.5 mg/cc in PBS pH 7.4 or 10‐mM acetic acid, 24 hours room temperature, centrifuged, supernatant by BCA protein assay; versus M‐PTH(1‐14)/PTHrP(15‐36)
[2] = Pharmacokinetics in normal rats, i.v., plasma peptide by ELISA; assay type: in vivo, rat; conditions: i.v. 10 nmol/kg, plasma with protease inhibitors, n = 4 (M‐PTH/PTHrP) or 3 (PTH(1–34))
Method: For pharmacokinetic studies, plasma samples were prepared in the presence of protease inhibitors (aprotinin, leupeptin, EDTA). Plasma levels of PTH(1–34) were assessed by ELISA assay (Human PTH(1–34) Specific ELISA Kit; Immutopics Inc, San Clemente, CA, USA), and plasma levels of M‐PTH/PTHrP were assessed by ELISA assay (PTH‐RP 1–34 Human Enzyme Immunoassay Kit; Peninsula Laboratories International, San Carlos CA, USA) using M‐PTH/PTHrP peptides as standard solutions.
Figure 3 Pharmacodynamic and pharmacokinetic profiles of M‐PTH/PTHrP and PTH(1–34) in rats. (A) Effects of M‐PTH/PTHrP and PTH(1–34) on blood ionized Ca in TPTX rats by i.v. injection. M‐PTH/PTHrP and PTH(1–34) were injected intravenously in TPTX rats at the indicated doses, and blood samples were collected from the tail vein measured for ionized Ca; data are means ± SE; n = 5 or 3 (PTH(1–34)). *p < 0.05, **p < 0.01, ***p < 0.005 M‐PTH/PTHrP or PTH(1–34) versus TPTX‐vehicle. […] M‐PTH/PTHrP and PTH(1–34) each at a dose of 10 nmol/kg were i.v. administered, and blood samples were collected from the jugular vein in the presence of proteinase inhibitors (Aprotinin, Leupeptin, and EDTA) and the plasma samples were assessed for peptide concentration using a hPTHrP(1–34)‐targeted EIA for M‐PTH/PTHrP and an hPTH(1–34)‐targeted ELISA for PTH(1–34). […]

[3] = tested on: amino‐terminal ECD portion of the PTH receptor; conditions: cited from earlier work
Text: In this study, we systematically explored a series of hybrid molecules composed of PTH and PTHrP.

Cc1cc(N2C(=O)NC(=O)C2(C)C)cc(C)c1CCS(=O)(=O)N1CCC2(CC1)N=C(c1ccc(OC(F)(F)F)cc1)NC2=O [PCO371]
Effect on sCa and sPi levels (TPTX rats): restore sCa and lower sPi levels

AVAEIQLMHQRAKWIQDARRRAFLHKLIAEIHTAEI [LA‐PTH, [Ala^1,3,12,Gln^10,Arg^11,Trp^14]PTH(1‐14)/[Ala^18,22,Lys^26]PTHrP(15‐36)COOH]
Peptide solubility in PBS relative to 10 mM acetic acid [1]: improved peptide solubility

CC[C@H](C)[C@H](NC(=O)[C@H](CCC(=O)O)NC(=O)[C@H](CO)NC(=O)[C@@H](NC(=O)[C@@H](N)CO)C(C)C)C(=O)N[C@@H](CCC(N)=O)C(=O)N[C@@H](CC(C)C)C(=O)N[C@@H](CCSC)C(=O)N[C@@H](Cc1cnc[nH]1)C(=O)N[C@@H](CC(N)=O)C(=O)N[C@@H](CC(C)C)C(=O)NCC(=O)N[C@@H](CCCCN)C(=O)N[C@@H](Cc1cnc[nH]1)C(=O)N[C@@H](CC(C)C)C(=O)N[C@@H](CC(N)=O)C(=O)N[C@@H](CO)C(=O)N[C@@H](CCSC)C(=O)N[C@@H](CCC(=O)O)C(=O)N[C@@H](CCCN=C(N)N)C(=O)N[C@H](C(=O)N[C@@H](CCC(=O)O)C(=O)N[C@@H](Cc1c[nH]c2ccccc12)C(=O)N[C@@H](CC(C)C)C(=O)N[C@@H](CCCN=C(N)N)C(=O)N[C@@H](CCCCN)C(=O)N[C@@H](CCCCN)C(=O)N[C@@H](CC(C)C)C(=O)N[C@@H](CCC(N)=O)C(=O)N[C@@H](CC(=O)O)C(=O)N[C@H](C(=O)N[C@@H](Cc1cnc[nH]1)C(=O)N[C@@H](CC(N)=O)C(=O)N[C@@H](Cc1ccccc1)C(=O)O)C(C)C)C(C)C [PTH(1‐34), reference compound]
Time by which plasma concentration declined to the lowest detection level [2]: ≤ 60 min

PTHrP(15–36): C‐terminal PTHrP fragment binding the receptor ECD (IQDLRRRFFLHHLIAEIHTAEI; Parathyroid hormone-related protein; UniProt P12272 51-72, looked up, fragment)
Affinity for the ECD relative to the PTH(15–34) fragment [3]: approximately twofold higher affinity
